Experimental data as given in patent US20120015988A1, “Sulfone Compounds Which Modulate The CB2 Receptor” (BOEHRINGER INGELHEIM INTERNATIONAL GMBH, priority 2008, published 2012).

Target: T1, human CB2R (Homo sapiens, UniProt P34972)
T1 construct: host or cells: CHO cells
Assay: CB2R mediated modulation of cAMP synthesis
Assay type: cell-based
Conditions: CHO cells expressing human CB2R; concentration at which 50% of the forskolin-stimulated cAMP synthesis was inhibited; 100% defined by 1 uM CP55940; read-out: CB2 EC50
Description: B. CB2R Mediated Modulation of Camp Synthesis:
Compounds of the invention were evaluated for their CB2 agonist or inverse agonistic activity in accordance with the following experimental method.
CHO cells expressing human CB2R (Euroscreen) were plated at a density of 5000 cells per well in 384 well plates and incubated overnight at 37° C. After removing the media, the cells were treated with test compounds diluted in stimulation buffer containing 1 mM IBMX, 0.25% BSA and 10 uM Forskolin. The assay was incubated for 30 minutes at 37° C. Cells were lysed and the cAMP concentration was measured using DiscoverX-XS cAMP kit, following the manufacturer's protocol. In this setting, agonists will decrease forskolin induced production of cAMP while inverse agonists will further increase forskolin induced production of cAMP. EC50 of agonists were calculated as follows. The maximal amount of cAMP produced by forskolin compared to the level of cAMP inhibited by 1 uM CP55940 is defined as 100%. The EC50 value of each test compound was determined as the concentration at which 50% of the forskolin-stimulated cAMP synthesis was inhibited. Data was analyzed using a four-parameter logistic model. (Model 205 of XLfit 4.0).

T1 sequence (P34972 whole entry): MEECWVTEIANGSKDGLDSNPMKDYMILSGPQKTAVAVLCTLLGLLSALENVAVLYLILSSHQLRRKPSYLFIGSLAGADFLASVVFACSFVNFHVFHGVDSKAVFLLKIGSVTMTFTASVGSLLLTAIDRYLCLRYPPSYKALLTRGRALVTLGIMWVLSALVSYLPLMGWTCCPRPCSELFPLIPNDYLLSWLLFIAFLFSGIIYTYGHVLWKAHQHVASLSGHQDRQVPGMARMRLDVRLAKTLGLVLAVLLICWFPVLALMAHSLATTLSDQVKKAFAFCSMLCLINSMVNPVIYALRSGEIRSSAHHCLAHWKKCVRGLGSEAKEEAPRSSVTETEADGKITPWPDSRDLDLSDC

Which EC50 does the source give for `CC(C)(C)c1cc(-c2nnc(C(C)(C)S(=O)(=O)CC3CCOCC3)o2)on1` [Example 24, 2-(3-tert-butyl-isoxazol-5-yl)-5-[1-methyl-1-(tetrahydro-pyran-4-ylmethanesulfonyl)-ethyl]-[1,3,4]oxadiazole] here?
The EC50 was 48 nM.

Which EC50 does the source give for `Cn1nc(C(C)(C)C)cc1-c1cnc(C(C)(C)S(=O)(=O)c2ccc(Cl)cc2)o1` [Example 8, 5-(5-tert-butyl-2-methyl-2H-pyrazol-3-yl)-2-[1-(4-chloro-benzenesulfonyl)-1-methyl-ethyl]-oxazole] here?
Its EC50 is 22 nM.

How did the EC50 turn out when `Cn1nc(C(C)(C)C)cc1-c1nnc(C(C)(C)S(=O)(=O)c2ccc(F)cc2)[nH]1` [Example 44, 3-(5-tert-butyl-2-methyl-2H-pyrazol-3-yl)-5-[1-(4-fluoro-benzenesulfonyl)-1-methyl-ethyl]-4H-[1,2,4]triazole] was run?
Its EC50 is 2 nM.

`Cn1nc(C(C)(C)C)cc1-c1nnc(C(C)(C)S(=O)(=O)CC2CCOCC2)[nH]1` [Example 46, 3-(5-tert-butyl-2-methyl-2H-pyrazol-3-yl)-5-[1-methyl-1-(tetrahydro-pyran-4-ylmethanesulfonyl)-ethyl]-4H-[1,2,4]triazole] was tested. Which EC50 did it give?
The EC50 was 414 nM.

`Cn1nc(C(C)(C)C)cc1-c1nnc(C(C)(C)S(=O)(=O)c2ccc(Cl)cc2)[nH]1` [Example 12, 3-(5-tert-butyl-2-methyl-2H-pyrazol-3-yl)-5-[1-(4-chloro-benzenesulfonyl)-1-methyl-ethyl]-4H-[1,2,4]triazole] was tested. Which EC50 did it give?
Its EC50 is 12 nM.

With `Cn1nc(C(C)(C)C)cc1-c1coc(C(C)(C)S(=O)(=O)c2ccc(F)cc2)n1` [Example 2, 4-(5-tert-butyl-2-methyl-2H-pyrazol-3-yl)-2-[1-(4-fluoro-benzenesulfonyl)-1-methyl-ethyl]-oxazole] as the molecule, how does the EC50 read?
Its EC50 is 0.35 nM.

How did the EC50 turn out when `Cn1nc(C(C)(C)C)cc1-c1coc(C(C)(C)S(=O)(=O)CC2CCOCC2)n1` [Example 5, 4-(5-tert-butyl-2-methyl-2H-pyrazol-3-yl)-2-[1-methyl-1-(tetrahydro-pyran-4-ylmethanesulfonyl)-ethyl]-oxazole] was run?
The EC50 was 145 nM.

For `CC(C)(C)c1cc(-c2noc(C(C)(C)S(=O)(=O)c3ccc(F)cc3)n2)on1` [Example 34, 3-(3-tert-butyl-isoxazol-5-yl)-5-[1-(4-fluoro-benzenesulfonyl)-1-methyl-ethyl]-[1,2,4]oxadiazole], which EC50 is on record?
The EC50 was 1.8 nM.

Which EC50 does the source give for `CC(C)(c1nc(C2CCCCC2)no1)S(=O)(=O)c1ccc(C(F)(F)F)cc1` [Example 16, 3-cyclohexyl-5-[1-methyl-1-(4-trifluoromethyl-benzenesulfonyl)-ethyl]-[1,2,4]oxadiazole] here?
The EC50 was 12 nM.

`Cn1nc(C(C)(C)C)cc1-c1nnc(C2(S(=O)(=O)c3ccc(Cl)cc3)CC2)o1` [Example 32, 2-(5-tert-butyl-2-methyl-2H-pyrazol-3-yl)-5-[1-(4-chloro-benzenesulfonyl)-cyclopropyl]-[1,3,4]oxadiazole] was tested. Which EC50 did it give?
Its EC50 is 3.7 nM.

Which EC50 does the source give for `CC(C)(C)c1cc(-c2nc(C(C)(C)S(=O)(=O)c3ccc(F)cc3)no2)on1` [Example 37, 5-(3-tert-butyl-isoxazol-5-yl)-3-[1-(4-fluoro-benzenesulfonyl)-1-methyl-ethyl]-[1,2,4]oxadiazole] here?
Its EC50 is 1 nM.

How did the EC50 turn out when `Cc1ccc(S(=O)(=O)C(C)(C)c2nc(-c3cc(C(C)(C)C)nn3C)co2)cc1` [Example 4, 4-(5-tert-butyl-2-methyl-2H-pyrazol-3-yl)-2-[1-methyl-1-(toluene-4-sulfonyl)-ethyl]-oxazole] was run?
The EC50 was 12 nM.

How did the EC50 turn out when `CC(C)(C)c1cc(-c2nnc(C(C)(C)S(=O)(=O)C3CCOCC3)o2)on1` [Example 29, 2-(3-tert-butyl-isoxazol-5-yl)-5-[1-methyl-1-(tetrahydro-pyran-4-sulfonyl)-ethyl]-[1,3,4]oxadiazole] was run?
The EC50 was 27 nM.
